According to patent US20020156115A1, “Insecticidal and acaricidal composition, and methods of using the same” (AGRO-KANESHO CO., LTD., priority 1999, published 2002):

Assays:
Assay type in all cases: in vivo
[1] = tested on: eggs of two-spotted red spiders (Tetranychus telarius); experiment: Acaricidal effect on eggs of two-spotted red spiders, ovicidal rate, 500 ppm spray; settings: eggs on green bean leaf disc; spray 3.5 ml; concentration 500 ppm; 8 days after treatment
Experimental: Acaricidal Effect on Eggs of Two-Spotted Red Spiders (Tetranychus telarius) 5 female imagoes of two-spotted red spiders were released on a green been leaf disc (diameter: 3 cm). Then, the imagoes were left to lay eggs on the leaf disc for 20 hours and then removed therefrom. The present acaricide which had been prepared according to Preparation Example 1 was diluted with water to a predetermined concentration. 3.5 ml of the preparation thus obtained was sprayed with a rotary spraying column (Mizuho Rika) over the disc (concentration: 500 ppm, repetition: twice). 8 days after the treatment, the number of unhatched eggs was counted to determine the ovicidal rate (%).

[2] = tested on: diamond backmoth (Plutella xylostera); experiment: Insecticidal effect on larvae of diamond backmoth (cabbage leaf dip); settings: 500 ppm; cabbage leaf immersed 1 minute; third-instar larvae; fourth day; 25° C.
Experimental: Insecticidal Effect on Larvae of Diamond Backmoth (Plutella xylostera) The present insecticide prepared according to the Preparation Example was diluted with water. A piece (diameter: 6 cm) of a cabbage leaf was immersed in the diluted insecticide for 1 minute. After air drying, the piece was placed in a plastic cup (inner diameter: 7 cm). 5 third-instar larvae of diamond backmoth (Plutella xylostera) were put in the cup (1 concentration, repetition: twice). The cup was kept in a constant temperature room at 25° C. On the fourth day, the survival rate and degree of writhing of the larvae were examined. The writhing larvae were each counted to be ½.

[3] = tested on: two-spotted red spiders (Tetranychus telarius); experiment: Acaricidal effect on two-spotted red spiders, imago-killing rate, 500 ppm leaf immersion; settings: female imagoes on green bean leaf, leaf immersion about 5 seconds, concentration 500 ppm, fifth day after treatment, 25° C.
Experimental: (§1) Acaricidal Effect on Larvae of Two-Spotted Red Spiders (Tetranychus telarius): A stem of green bean seedling having only one primary left was placed in a test tube (capacity: 50 ml) containing water. 15 female imagoes of two-spotted red spiders were put on each leaf. One day after, the leaf having the two-spotted red spiders was immersed (about 5 seconds) in the present insecticide diluted with water, which had been prepared according to the Preparation Example, (concentration: 500 ppm, repetition: twice). They were kept in a constant-temperature room at 25° C. On the fifth day after the treatment, the female imagoes on the leaf of the green bean seedling were observed. The imago-killing rate (%) was determined on the basis of the results of the observation to obtain the results shown in Table 6.

[4] = tested on: two-spotted red spiders (Tetranychus telarius); experiment: Acaricidal effect of a low concentration (12.5 ppm) on two-spotted red spiders; settings: leaf immersion, female imagoes, fifth day after treatment, 25° C.
Experimental: as §1, with “A” for “Acaricidal Effect on Larvae of Two-Spotted Red Spiders (Tetranychus telarius): A”
Acaricidal Effect of a Low Concentration of Acaricide on Larvae of Two-Spotted Red Spiders (Tetranychus telarius)
The same tests as those of Test Example 2 were repeated except that the concentration of the acaricide was changed to 12.5 ppm.

SMILES	Ovicidal rate (%) [1] [%]	Killing rate [2] [%]	Acaricidal rate (%) [3] [%]	acaricidal effect [4] [%]
CO/C=C(/C(=O)OC)c1c(C#Cc2cccc(C(F)(F)F)c2)c(C)nn1C [Table 1-2]	100	60	100	
COC=C(C(=O)OC)c1c(C#Cc2ccc(C(F)(F)F)cc2)c(C)nn1C [Table 1-3, Methyl α-{1,3-dimethyl-4-(4-trifluoromethylphenylethynyl)-5-pyrazole}-β-methoxyacrylate]	100	80	100	100
COC=C(C(=O)OC)c1c(C#Cc2cc(C(F)(F)F)cc(C(F)(F)F)c2)c(C)nn1C [Table 1-5, Methyl α-[1,3-dimethyl-4-{3,5-bis(trifluoromethyl)phenylethynyl}-5-pyrazole]-β-methoxyacrylate]	100	100	100	100
CO/C=C(/C(=O)OC)c1c(C#Cc2cc(F)cc(Cl)c2)c(C)nn1C [Table 1-7]	100	80	100	100
CO/C=C(/C(=O)OC)c1c(C#Cc2cc(F)cc(F)c2)c(C)nn1C [Table 1-8]	100	100	100	100
CO/C=C(/C(=O)OC)c1c(C#Cc2ccc(Oc3ccc(C(F)(F)F)cn3)cc2)c(C)nn1C [Table 1-13]	100	100	100	
CCc1nn(CC)c(/C(=C\OC)C(=O)OC)c1C#Cc1cc(C(F)(F)F)cc(C(F)(F)F)c1 [Table 1-28]	100		100	100
CO/C=C(/C(=O)OC)c1c(C#Cc2ccc(OC(F)F)cc2)c(C)nn1C [Table 1-30]	100		100	100
CCn1nc(C(F)(F)F)c(C#Cc2nc(OC(C)C)cc(C(F)(F)F)n2)c1/C(=C\OC)C(=O)OC [Table 1-37]	100		100	100
CCn1nc(C(F)(F)F)c(C#Cc2cc(C(F)(F)F)cc(C(F)(F)F)c2)c1/C(=C\OC)C(=O)OC [Table 1-39]	100		100	100
CCn1nc(C(F)(F)F)c(C#Cc2cc(C(F)(F)F)cc(C(F)(F)F)c2)c1/C(=C/OC)C(=O)OC [Table 1-40]	100		100	100
CO/C=C(/C(=O)OC)c1c(OCc2cccc(Oc3ccc(C(F)(F)F)cc3)c2)c(C)nn1C [Table 2-3]	100	100	100	
CO/C=C(/C(=O)OC)c1c(OCc2ccc(C(C)(C)C)cc2)c(C)nn1C [Table 2-4]	100	70	100	
CO/C=C(/C(=O)OC)c1c(OCc2ccc(C(F)(F)F)cc2)c(C)nn1C [Table 2-5]	100	90	100	
CO/C=C(/C(=O)OC)c1c(OCc2cc(C(F)(F)F)cc(C(F)(F)F)c2)c(C(F)(F)F)nn1C [Table 2-26]	100		100	100
CCc1nn(C)c(/C(=N\OC)C(=O)OC)c1CON=C(C)c1ccc(C(F)(F)F)cc1 [Table 3-73]		100		
CCc1nn(C)c(/C(=N\OC)C(=O)OC)c1CON=C(C)c1cccc(OC(F)F)c1 [Table 3-76]		100		
CO/C=C(/C(=O)OC)c1c(CON=C(C)c2ccc(OC(F)(F)F)cc2)c(C)nn1C [Table 3-101]	100	100	100	
